Key:
streptavidin [1] = target: T1, streptavidin (Streptomyces avidinii, UniProt P22629); assay: Desthiobiotin-streptavidin nanoswitch off-rate experiments; assay type: binding
T1 construct: purchased Rockland
Protocol: Desthiobiotin experiments were conducted in a similar manner as the biotin experiments with slight modifications. […] The off-rate of the desthiobiotin interaction is much faster than the typical 100 minute gel run time. Noting that once a loop opens in the gel, the reptation of the DNA prevents the loop from closing again, we ran samples for different amounts of time in the gel at 15 V/cm and 4° C. and quantified the fraction looped as a function of running time (Appendix A—Supplementary FIG. 5). In addition to allowing the determination of the desthiobiotin-streptavidin off rate, this gel also allowed us to determine the minimum amount of time required to achieve separation of the looped and unlooped bands in the gel. This enabled the use of the standard quenching technique for measuring desthiobiotin off-rates as described in the previous section; these gels were run at 15 V/cm for 10 minutes in pre-chilled electrophoresis buffer.

streptavidin [2] = target: T1, streptavidin; assay: Biotin-streptavidin nanoswitch on-rate and off-rate experiments; assay type: binding
Protocol: This construct used biotinylated versions of two oligonucleotides (var 4 and var 8), which were used in 4× molar excess to the scaffold, while all other oligonucleotides were used in a 10× molar excess. […] The final DNA construct was then diluted 100× from its original concentration of ~16 nM (to 160 pM), and mixed in equal volumes with streptavidin (Rockland) at 6 nM nominal concentration to form the loops, yielding final nominal concentrations of ~80 pM and 3 nM, respectively.
The 25° C. experiment was performed at room temperature, the 4° C. experiment was performed in a cold room, and the 37° C. and 50° C. experiments were performed using a thermal cycler. […] Actual concentrations used to determine the on-rates were measured using spectrophotometry and a HABA assay to determine streptavidin activity.
Off-rate measurements were performed by forming looped construct as described above, and letting the solution sit for at least 24 hours to allow the system to reach equilibrium. […] The 4° C. condition was done in a refrigerator, the 25° C. sample was done in a water bath, and the 37° C. and 50° C. temperatures were done in a thermal cycler. To run all the samples on a single gel, the quenching times were determined relative to the predetermined gel running time.
We additionally used Eyring analysis to fit the temperature dependence of the kinetic rates: […]

T1 sequence (P22629 25-183): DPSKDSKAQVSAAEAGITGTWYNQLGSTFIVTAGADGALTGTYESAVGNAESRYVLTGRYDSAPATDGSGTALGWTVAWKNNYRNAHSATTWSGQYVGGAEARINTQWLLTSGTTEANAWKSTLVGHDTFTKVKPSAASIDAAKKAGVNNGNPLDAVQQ

C[C@@H]1NC(=O)N[C@@H]1CCCCCC(=O)O [desthiobiotin]
off-rate of streptavidin-desthiobiotin (streptavidin [1]; 4° C.): 35.3 ± 7.5 min
off-rate of streptavidin-desthiobiotin (streptavidin [1]; room temperature): 8.6 ± 1.2 min

O=C(O)CCCC[C@@H]1SC[C@@H]2NC(=O)N[C@@H]21 [biotin]
on-rate (streptavidin [2]; 150 mM salt, room temperature): 4.0±0.7×10^6 M^−1s^−1
equilibrium enthalpy change ΔH (streptavidin [2]; calculated from on-rate and off-rate measurements): 26.01 ± 0.05 kcal/mol
dissociation time (streptavidin [2]; physiological salt conditions and 25° C.): 9.7 ± 0.4 days
